For experiment [1], the target named is Delta-type opioid receptor (Mus musculus) (UniProt P32300). The experiment in a line: In vitro potency of EM-2 measured towards Opioid receptor delta 1 using mouse vas deferens assay. The class given is functional, tissue-based.
Experiment [2] has as its target Delta-type opioid receptor (Mus musculus, UniProt P32300). The experiment in a line: In vitro inhibitory concentration against Opioid receptor delta 1 was measured using mouse vas deferens assay.
Experiment [3] has as its target Mu-type opioid receptor (Cavia porcellus) (UniProt P97266). The experiment in a line: In vitro potency of EM-2 was measured towards Opioid receptor mu 1 using guinea pig ileum assay. The class given is tissue-based.
Experiment [4] can be described thus: Selectivity for Opioid receptor mu 1 to that of Opioid receptor delta 1.
The target in another experiment is Mu-type opioid receptor (Cavia porcellus, UniProt P97266). Put plainly: In vitro inhibitory concentration against Opioid receptor mu 1 was measured using guinea pig ileum assay. The class given is tissue-based.
Mu-type opioid receptor, sequence (P97266 whole entry): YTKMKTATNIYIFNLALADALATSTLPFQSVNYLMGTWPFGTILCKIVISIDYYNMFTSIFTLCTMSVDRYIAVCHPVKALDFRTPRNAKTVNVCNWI
The nature of experiment [5]: Mean value of binding constant for Opioid receptors assayed with [3H]DPDPE.
In experiment [6] the target is Mu-type opioid receptor (Cavia porcellus) (UniProt P97266). The experiment in a line: Relative potency of EM-2 measured towards Opioid receptor mu 1 assayed with [3H]DAMGO.
Mu-type opioid receptor (Cavia porcellus), sequence (P97266 whole entry): as above
In experiment [7] the target is Delta-type opioid receptor (Mus musculus) (UniProt P32300). The experiment in a line: Ratio of IC50s against Opioid receptor delta 1 was measured in mouse vas deferens to that of guinea pig ileum. The class given is tissue-based.
The nature of experiment [8]: Mean value of binding constant for Opioid receptors assayed with [3H]DAMGO.
The target of experiment [9] is Delta-type opioid receptor (Mus musculus) (UniProt P32300). The experiment in a line: Relative potency of EM-2 measured towards Opioid receptor delta 1 assayed with [3H]DPDPE.

Starred links: 1 amine or outer side, 2 acyl side, 3 side chain; linkers in the order of their positions; H or OH if unused. Positions of bridges follow the written chain, without caps; N, C: chain ends. Residues, ends and D or L forms follow the SMILES beside them. Chains are numbered I, II in the order given. Ethylenediamine = C(CN[*:2])N[*:1] Bounds are passed on as bounds.

By IC50 is commonly meant the concentration needed to halve the response being measured. For orientation: Ki means the dissociation constant of the complex between target and ligand, obtained from inhibition or displacement. A lower Ki goes with a stronger hold on the target.

Delta-type opioid receptor (Mus musculus), sequence (P32300 whole entry): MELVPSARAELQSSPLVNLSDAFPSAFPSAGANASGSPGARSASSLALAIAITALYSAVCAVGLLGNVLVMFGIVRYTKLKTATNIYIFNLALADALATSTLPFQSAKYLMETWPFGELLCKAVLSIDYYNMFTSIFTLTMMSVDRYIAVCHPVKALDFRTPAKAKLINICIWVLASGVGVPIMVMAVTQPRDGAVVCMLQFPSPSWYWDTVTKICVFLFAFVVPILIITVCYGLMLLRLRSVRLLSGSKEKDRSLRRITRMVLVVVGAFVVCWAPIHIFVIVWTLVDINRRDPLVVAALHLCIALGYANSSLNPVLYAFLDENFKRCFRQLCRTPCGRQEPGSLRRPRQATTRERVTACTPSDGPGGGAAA
Delta-type opioid receptor, sequence (P32300 whole entry): as above

Turning to `COC(=O)[C@H](Cc1ccccc1)NC(=O)[C@H](Cc1ccccc1)NC(=O)[C@@H]1CCCN1C(=O)[C@@H](N)Cc1ccc(O)cc1`, the Relative potency in experiment [1] stood at 1.3; in experiment [3], 0.35; in experiment [6] it was 0.91. Also, the IC50 in experiment [2] worked out at 0.0372 µM; on Mu-type opioid receptor it was 0.0421 µM. This molecule returned a Selectivity in experiment [4] greater than 1110. The Ki in experiment [5] was greater than 10 µM; in [8], 0.00907 µM. In experiment [7], the Ratio was 0.88.
Take `NC(=O)[C@H](Cc1ccccc1)NC(=O)[C@@H]1CCCN1C(=O)[C@H](Cc1ccc(O)cc1)NCCC(=O)[C@H](Cc1ccccc1)NC(=O)[C@@H]1CCCN1C(=O)[C@@H](N)Cc1ccc(O)cc1`: the Relative potency stood at 0.048 in [1], 0.067 in [3], 0.32 in experiment [6] and 9.06 in experiment [9]. This molecule also returned a Selectivity in experiment [4] of 35.4. Further, in experiment [7], the Ratio is 4.64.
Take `NNC(=O)[C@H](Cc1ccccc1)NC(=O)[C@H](Cc1ccccc1)NC(=O)[C@@H]1CCCN1C(=O)[C@@H](N)Cc1ccc(O)cc1`: the Relative potency in [1] worked out at 0.26; in experiment [3], 0.11; in [6], 0.88. The IC50 in experiment [2] was 0.185 µM; against Mu-type opioid receptor it was 0.132 µM. This molecule displayed a Selectivity in experiment [4] greater than 1070. Moreover, the Ki was greater than 10 µM in experiment [5] and 0.00935 µM in [8]. In [7], the Ratio amounted to 1.4.
In experiment [4], `NC(=O)[C@H](Cc1ccccc1)NC(=O)[C@@H]1CCCN1C(=O)[C@@H](N)Cc1ccc(O)cc1` (H-Tyr-Pro-Phe-NH2) showed a Selectivity greater than 71.4. Besides, the Ki in experiment [5] is greater than 10 µM; in [8], 0.14 µM. In experiment [6], this molecule yielded a Relative potency of 0.059.
Regarding `N[C@@H](Cc1ccc(O)cc1)C(=O)N1CCC[C@H]1C(=O)N[C@@H](Cc1ccccc1)C(=O)NCCNC(=O)[C@H](Cc1ccccc1)NC(=O)[C@@H]1CCCN1C(=O)[C@@H](N)Cc1ccc(O)cc1` (I: H-Tyr-Pro-Phe / II: H-Tyr-Pro-Phe; linker I:C-II:C via Ethylenediamine), the IC50 in [2] came to 1.01 µM; at Mu-type opioid receptor it was 0.218 µM. Further, the Ki in experiment [5] stood at 0.923 µM; in experiment [8], 0.0261 µM.
As to `N[C@@H](Cc1ccc(O)cc1)C(=O)N1CCC[C@H]1C(=O)N[C@@H](Cc1ccccc1)C(=O)N[C@@H](Cc1ccccc1)C(=O)NCCCCNC(=O)[C@H](Cc1ccccc1)NC(=O)[C@H](Cc1ccccc1)NC(=O)[C@@H]1CCCN1C(=O)[C@@H](N)Cc1ccc(O)cc1`, the IC50 in [2] is greater than 10 µM. For the same molecule, the Ki came out at 7.03 µM in experiment [5] and 0.168 µM in [8].
Turning to `N[C@@H](Cc1ccc(O)cc1)C(=O)N1CCC[C@H]1C(=O)N[C@@H](Cc1ccccc1)C(=O)N[C@@H](Cc1ccccc1)C(=O)NCCNC(=O)[C@H](Cc1ccccc1)NC(=O)[C@H](Cc1ccccc1)NC(=O)[C@@H]1CCCN1C(=O)[C@@H](N)Cc1ccc(O)cc1`, the results for the IC50 (in [2]; at Mu-type opioid receptor) were 0.029 µM and 3.54 µM, respectively. Further, the Ki in experiment [5] was determined as 0.613 µM; in experiment [8], 0.0863 µM.
The corresponding values for `N[C@@H](Cc1ccc(O)cc1)C(=O)N1CCC[C@H]1C(=O)N[C@@H](Cc1ccccc1)C(=O)N[C@@H](Cc1ccccc1)C(=O)NNC(=O)[C@H](Cc1ccccc1)NC(=O)[C@H](Cc1ccccc1)NC(=O)[C@@H]1CCCN1C(=O)[C@@H](N)Cc1ccc(O)cc1` are 0.721 µM, 0.518 µM, 0.539 µM and 0.0964 µM.
Take H-YPFYPF-NH2: the Relative potency came to 0.015 in [1], 0.013 in [3], 0.27 in [6] and 4.41 in experiment [9]. Besides, the Selectivity in experiment [4] worked out at 61.8. Besides, in [7], the Ratio is 2.82.
For the molecule `N[C@@H](Cc1ccc(O)cc1)C(=O)N1CCC[C@H]1C(=O)N[C@@H](Cc1ccccc1)C(=O)NNC(=O)[C@H](Cc1ccccc1)NC(=O)[C@@H]1CCCN1C(=O)[C@@H](N)Cc1ccc(O)cc1`, the IC50 in experiment [2] was found to be 3.2 µM; on Mu-type opioid receptor, 1.14 µM. Besides, the Ki in [5] was determined as 1.9 µM; in experiment [8], 0.0307 µM.

For the origin of these results see ChEMBL document CHEMBL1143501, “Structure-activity relationship of the novel bivalent and C-terminal modified analogues of endomorphin-2” (Bioorg Med Chem Lett, 2005).
